A short description of assay [1]: Displacement of [3H]DTG from sigma2 receptor in rat liver homogenate in presence of (+)-pentazocine. The format is tissue-based. Background: Loss of bound radioactivity is the signal in a displacement assay; it reports binding, not function.
For assay [2], the target named is Sigma non-opioid intracellular receptor 1 (Cavia porcellus, UniProt Q60492). Nature of the assay: Displacement of [3H](+)-pentazocine from sigma1 receptor in guinea pig brain homogenate. Type of assay: tissue-based.
Assay [3] is described as follows: Selectivity ratio of Ki for rat sigma2 receptor to Ki for guinea pig sigma1 receptor.
Assay [4] in a line: Binding affinity to sigma2 receptor. Also on record: species or system Homo sapiens.
Assay [5] can be described thus: Binding affinity to sigma1 receptor.
Assay [6] can be described thus: Binding affinity to sigma2 receptor in guinea pig brain homogenate. The format is tissue-based, Cavia porcellus.
Assay [7] has as its target Sigma non-opioid intracellular receptor 1 (Rattus norvegicus, UniProt Q9R0C9). Nature of the assay: biochemical.
Description: Displacement of [3H](+)-pentazocine from sigma1 receptor in rat brain homogenate after 120 mins

Structures are written as SMILES.

The text below walks through data of ChEMBL document CHEMBL2069270, “Exploration of ring size in a series of cyclic vicinal diamines with σ₁ receptor affinity” (Bioorg Med Chem Lett, 2012).

In general, Ki refers to the equilibrium dissociation constant of an inhibitor or competing ligand from its target.

Chain of Sigma non-opioid intracellular receptor 1 (Cavia porcellus, UniProt Q60492) (Q60492 whole entry): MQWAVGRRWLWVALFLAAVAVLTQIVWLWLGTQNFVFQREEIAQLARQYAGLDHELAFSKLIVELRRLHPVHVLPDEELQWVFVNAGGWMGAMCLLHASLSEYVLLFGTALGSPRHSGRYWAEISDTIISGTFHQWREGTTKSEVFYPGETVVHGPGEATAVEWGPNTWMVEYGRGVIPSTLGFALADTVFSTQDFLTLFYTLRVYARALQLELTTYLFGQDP
Chain of Sigma non-opioid intracellular receptor 1 (Rattus norvegicus, UniProt Q9R0C9) (Q9R0C9 whole entry): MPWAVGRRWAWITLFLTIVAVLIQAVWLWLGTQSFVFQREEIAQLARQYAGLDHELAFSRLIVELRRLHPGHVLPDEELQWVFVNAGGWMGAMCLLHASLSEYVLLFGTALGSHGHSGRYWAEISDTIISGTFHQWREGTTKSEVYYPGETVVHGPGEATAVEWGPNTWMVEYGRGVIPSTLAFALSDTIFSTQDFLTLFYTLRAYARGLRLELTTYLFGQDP

On to `FCCCOc1ccc(CN2CCN(Cc3cc4ccccc4o3)CC2)cc1`, for which the values for the Ki in assay [1] and in assay [2] were 1360 nM and 1.61 nM, respectively. Moreover, the Ratio Ki in assay [3] is 842.
The like results for `CCOc1ccc(CN2CCCN(Cc3cc4ccccc4o3)CC2)cc1` were, in that order, 292 nM, 0.194 nM and 1500.
Regarding `FCCCOc1ccc(CN2CCN(Cc3cc4ccccc4o3)C2)cc1`, the Ki in assay [1] was 3640 nM; in assay [2] it was 20.8 nM. Besides, the Ratio Ki in assay [3] came out at 175.
In assay [4], `c1ccc(CN2CCN(Cc3ccccc3)CC2)cc1` registered a Ki of 1270 nM.
In the case of `COc1ccc(CN2CCN(Cc3cc4ccccc4o3)CC2)cc1`, the Ki worked out at 167 nM in assay [1] and 0.18 nM in assay [2]. For the same molecule, the Ratio Ki in assay [3] is 929.
Consider `COc1ccc(CN2CCCN(Cc3cc4ccccc4o3)CC2)cc1`, for which the Ki in assay [1] came out at 119 nM; in assay [2], 0.54 nM. In addition, in assay [3], the Ratio Ki amounted to 220.
`COc1cccc2c1CCCC2CCCN1CCN(Cc2ccccc2)CC1` (stereo unspecified) returned a Ki in assay [4] of 1870 nM.
Turning to `COc1cccc(CCN2CCN(CCCc3ccccc3)CC2)c1`, the Ki in assay [5] stood at 1.4 nM; in assay [4], 10.2 nM.
`FCCOc1ccc(CN2CCN(Cc3cc4ccccc4o3)C2)cc1`: the Ki amounted to 1530 nM in assay [1] and 6.45 nM in assay [2]. For the same molecule, the Ratio Ki in assay [3] was 237.
On to `CCCOc1ccc(CN2CCCN(Cc3cc4ccccc4o3)CC2)cc1`, for which the Ki in assay [1] amounted to 700 nM; in assay [2], 0.152 nM. Besides, the Ratio Ki in assay [3] worked out at 4600.
Consider `CCCOc1ccc(CN2CCN(Cc3cc4ccccc4o3)C2)cc1`, for which the Ki amounted to 6470 nM in assay [1] and 53.5 nM in assay [2]. Further, in assay [3], the Ratio Ki stood at 121.
For `FCCCOc1ccc(CN2CCCN(Cc3cc4ccccc4o3)CC2)cc1`, the Ki is 1380 nM in assay [1] and 0.12 nM in assay [2]. In addition, the Ratio Ki in assay [3] was determined as 11500.
For the molecule `FCCOc1ccc(CN2CCCN(Cc3cc4ccccc4o3)CC2)cc1`, the Ki in assay [1] was 88.1 nM; in assay [2], 0.1 nM. For the same molecule, the Ratio Ki in assay [3] is 881.
Turning to `CCOc1ccc(CN2CCN(Cc3cc4ccccc4o3)CC2)cc1`, the values for the Ki in assay [1] and in assay [2] were 1120 nM and 0.18 nM, respectively. Further, the Ratio Ki in assay [3] was found to be 6190.
`COc1ccc(CCN2CCN(CCCc3ccccc3)CC2)cc1OC` [[11C]SA4503]: the Ki in assay [6] was 63 nM.
Take `COc1ccc(CN2CCN(Cc3cc4ccccc4o3)C2)cc1`: the figures for the Ki in assay [1] and in assay [2] were 2500 nM and 43 nM, respectively. Further, the Ratio Ki in assay [3] came out at 58.
With `CCOc1ccc(CN2CCN(Cc3cc4ccccc4o3)C2)cc1`, the Ki was 2380 nM in assay [1] and 19.3 nM in assay [2]. The Ratio Ki in assay [3] amounted to 123.
For the molecule `CCCOc1ccc(CN2CCN(Cc3cc4ccccc4o3)CC2)cc1`, the Ki in assay [1] was 1470 nM; in assay [2], 10.3 nM. In addition, in assay [3], the Ratio Ki is 143.
Take `FCCOc1ccc(CN2CCN(Cc3cc4ccccc4o3)CC2)cc1`: the Ki in assay [1] was determined as 807 nM; in assay [2] it was 0.05 nM. The Ratio Ki in assay [3] was 16100.
In turn, `S=c1sc2ccccc2n1CCCCN1CCN(C2CCCCC2)CC1` came in with a Ki in assay [7] of 1.3 nM.
